Measured values from patent publication US20210213104A1, “GLUCAGON AND GLP-1 CO-AGONISTS FOR THE TREATMENT OF CHRONIC KIDNEY DISEASE AND DIABETIC KIDNEY DISEASE IN TYPE 2 DIABETES” (MEDIMMUNE LIMITED, priority 2020, published 2021).

System: subjects with T2DM and renal impairment
Assay: Phase 2a: continuous glucose monitoring (CGM)
Format: in vivo, human
Conditions: ITT; for Average CGM Glucose Over 7-Day Periods, Difference in LS Mean Change (vs Placebo) / Average CGM Glucose Over 7-Day Periods, LS Mean Change / Percentage of time CGM Glucose in Clinically Significant Hypoglycemia (<54 mg/dL), Difference in LS Mean Change (vs Placebo) / Percentage of time CGM Glucose in Clinically Significant Hypoglycemia (<54 mg/dL), LS Mean Change / Percentage of time CGM Glucose in Hyperglycemia (>180 mg/dL), Difference in LS Mean Change (vs Placebo) / Percentage of time CGM Glucose in Hyperglycemia (>180 mg/dL), LS Mean Change / Percentage of time CGM Glucose in Hypoglycemia (<70 mg/dl), Difference in LS Mean Change (vs Placebo) / Percentage of time CGM Glucose in Hypoglycemia (<70 mg/dl), LS Mean Change / Average CGM Glucose Over 7-Day Periods, Change from Baseline to End of Dosing Period, Mean / Average CGM Glucose Over 7-Day Periods, Change from Baseline to End of Dosing Period, Median / Percentage of time CGM Glucose in Hyperglycemia (>180 mg/dL), Change from Baseline to End of Dosing Period, Mean / Percentage of time CGM Glucose in Hyperglycemia (>180 mg/dL), Change from Baseline to End of Dosing Period, Median: baseline Days −8 to −2; for Average CGM Glucose Over 7-Day Periods, Difference in LS Mean Change (vs Placebo) / Average CGM Glucose Over 7-Day Periods, LS Mean Change / Percentage of time CGM Glucose in Clinically Significant Hypoglycemia (<54 mg/dL), Difference in LS Mean Change (vs Placebo) / Percentage of time CGM Glucose in Clinically Significant Hypoglycemia (<54 mg/dL), LS Mean Change / Percentage of time CGM Glucose in Hyperglycemia (>180 mg/dL), Difference in LS Mean Change (vs Placebo) / Percentage of time CGM Glucose in Hyperglycemia (>180 mg/dL), LS Mean Change / Percentage of time CGM Glucose in Hypoglycemia (<70 mg/dl), Difference in LS Mean Change (vs Placebo) / Percentage of time CGM Glucose in Hypoglycemia (<70 mg/dl), LS Mean Change / Time in target range, LS Mean Change: ANCOVA; for Time in target range, LS Mean Change: 300 μg Dose (Days 26 to 32)
Description: Cotadutide was titrated from 50 μg up to 300 μg and administered once daily by subcutaneous (SC) injection over 32 days.
Cotadutide was administered at 50 μg once daily for 4 days, followed by 100 μg daily for 7 days, 200 μg daily for 7 days, and 300 μg daily for 14 days (n=20). Placebo was administered one daily for 32 days (n=20). Cotadutide and placebo were administered in the morning. Dosing commenced following predose baseline vital signs, blood tests (including HbA1c), an electrocardiogram (ECG), body weight measurement, and bioimpedance spectroscopy (BIS). Subjects then returned for daily dosing or remained overnight locally until Day 5, and thereafter, had visits at weekly intervals until a maintenance dose of 300 μg was established. Thus, Cotadutide or placebo was administered at the study site by study personal for the first four doses and on site on Days 5, 12, 19, and 32. At all other times, subjects preformed dosing at home.
A Freestyle Libre® Pro CGM device was used to measure interstitial glucose levels. […] Data generated by CGM was used at visits to adjust insulin doses and other treatments.
The CGM sensor, which is a small plastic circular device of 35 mm diameter and 5 mm depth, was applied to the back of the upper arm. Subjects wore the CGM sensor continuously up until the time of a sensor change, which was to occur within 14 days, and they were advised that they could bathe and shower, and swim in up to 3 m depth for up to 30 minutes while wearing the CGM sensor. When the CGM sensor was removed, a new CGM sensor could be reapplied, ideally close to the original site, but with the subject's site preference taken into account. CGM sensors were single-use only.
If a subject was unable to tolerate wearing the CGM sensor for the entire duration of the study, the sensor was removed; but the subject was to remain in the study with or without continued CGM and could instead be instructed to monitor capillary plasma glucose measurements four times per day (before meals and before bedtime) and record these levels in the diary provided.
Subjects underwent continuous glucose monitoring (CGM) starting from Day −14 to Day 40 (±5 days), with sensor changes within 14-day intervals. CGM readings were used to analyze change in average CGM glucose and glucose AUC7 d, coefficient of variation as a marker of glycemic variability, and time spent in target glucose range and hypoglycemia, to enable comparison across different dose levels.

Structure (SMILES): CCCCCCCCCCCCCCCC(=O)N[C@@H](CCC(=O)NCCCC[C@H](NC(=O)[C@H](CC(=O)O)NC(=O)[C@H](CO)NC(=O)[C@@H](NC(=O)[C@H](Cc1ccccc1)NC(=O)[C@@H](NC(=O)CNC(=O)[C@H](CCC(N)=O)NC(=O)[C@H](CO)NC(=O)[C@@H](N)Cc1c[nH]cn1)[C@@H](C)O)[C@@H](C)O)C(=O)N[C@@H](CO)C(=O)N[C@@H](CCC(=O)O)C(=O)N[C@@H](Cc1ccc(O)cc1)C(=O)N[C@@H](CC(C)C)C(=O)N[C@@H](CC(=O)O)C(=O)N[C@@H](CO)C(=O)N[C@@H](CCC(=O)O)C(=O)N[C@@H](CCCNC(=N)N)C(=O)N[C@@H](C)C(=O)N[C@@H](CCCNC(=N)N)C(=O)N[C@@H](CC(=O)O)C(=O)N[C@@H](Cc1ccccc1)C(=O)N[C@H](C(=O)N[C@@H](C)C(=O)N[C@@H](Cc1c[nH]c2ccccc12)C(=O)N[C@@H](CC(C)C)C(=O)N[C@@H](CCC(=O)O)C(=O)N[C@@H](C)C(=O)NCC(=O)NCC(=O)O)C(C)C)C(=O)O [Cotadutide]
- Average CGM Glucose Over 7-Day Periods, End of Dosing Period, Mean (300 μg (Days 19 to 25)): 124.894 mg/dL
- Average CGM Glucose Over 7-Day Periods, End of Dosing Period, Median (300 μg (Days 19 to 25)): 123.277 mg/dL
- Percentage of time CGM Glucose in Hyperglycemia (>180 mg/dL), End of Dosing Period, Mean (300 μg (Days 19 to 25)): 10.65%
- Percentage of time CGM Glucose in Hyperglycemia (>180 mg/dL), End of Dosing Period, Median (300 μg (Days 19 to 25)): 5.81%
- Average CGM Glucose Over 7-Day Periods, Difference in LS Mean Change (vs Placebo) (300 μg (Days 19 to 25)): -48.97 mg/dL
- Average CGM Glucose Over 7-Day Periods, LS Mean Change (300 μg (Days 19 to 25)): -38.75 mg/dL
- Percentage of time CGM Glucose in Clinically Significant Hypoglycemia (<54 mg/dL), Difference in LS Mean Change (vs Placebo) (300 μg (Days 19 to 25)): 4.57%
- Percentage of time CGM Glucose in Clinically Significant Hypoglycemia (<54 mg/dL), LS Mean Change (300 μg (Days 19 to 25)): 3.58%
- Percentage of time CGM Glucose in Hyperglycemia (>180 mg/dL), Difference in LS Mean Change (vs Placebo) (300 μg (Days 19 to 25)): −23.47%
- Percentage of time CGM Glucose in Hyperglycemia (>180 mg/dL), LS Mean Change (300 μg (Days 19 to 25)): −23.47%
- Percentage of time CGM Glucose in Hypoglycemia (<70 mg/dl), Difference in LS Mean Change (vs Placebo) (300 μg (Days 19 to 25)): 4.25%
- Percentage of time CGM Glucose in Hypoglycemia (<70 mg/dl), LS Mean Change (300 μg (Days 19 to 25)): 3.39%
- Average CGM Glucose Over 7-Day Periods, Change from Baseline to End of Dosing Period, Mean (300 μg (Days 19 to 25)): -38.623 mg/dL
- Average CGM Glucose Over 7-Day Periods, Change from Baseline to End of Dosing Period, Median (300 μg (Days 19 to 25)): -35.498 mg/dL
- Percentage of time CGM Glucose in Hyperglycemia (>180 mg/dL), Change from Baseline to End of Dosing Period, Mean (300 μg (Days 19 to 25)): −23.50%
- Percentage of time CGM Glucose in Hyperglycemia (>180 mg/dL), Change from Baseline to End of Dosing Period, Median (300 μg (Days 19 to 25)): −19.64%
- Average CGM Glucose Over 7-Day Periods, End of Dosing Period, Mean (300 μg (Days 26 to 32)): 125.382 mg/dL
- Average CGM Glucose Over 7-Day Periods, End of Dosing Period, Median (300 μg (Days 26 to 32)): 121.594 mg/dL
- Percentage of time CGM Glucose in Hyperglycemia (>180 mg/dL), End of Dosing Period, Mean (300 μg (Days 26 to 32)): 10.00%
- Percentage of time CGM Glucose in Hyperglycemia (>180 mg/dL), End of Dosing Period, Median (300 μg (Days 26 to 32)): 4.38%
- Average CGM Glucose Over 7-Day Periods, Difference in LS Mean Change (vs Placebo) (300 μg (Days 26 to 32)): -47.89 mg/dL
- Average CGM Glucose Over 7-Day Periods, LS Mean Change (300 μg (Days 26 to 32)): -41.37 mg/dL
- Percentage of time CGM Glucose in Clinically Significant Hypoglycemia (<54 mg/dL), Difference in LS Mean Change (vs Placebo) (300 μg (Days 26 to 32)): 1.58%
- Percentage of time CGM Glucose in Clinically Significant Hypoglycemia (<54 mg/dL), LS Mean Change (300 μg (Days 26 to 32)): 0.13%
- Percentage of time CGM Glucose in Hyperglycemia (>180 mg/dL), Difference in LS Mean Change (vs Placebo) (300 μg (Days 26 to 32)): −18.94%
- Percentage of time CGM Glucose in Hyperglycemia (>180 mg/dL), LS Mean Change (300 μg (Days 26 to 32)): −25.15%
- Percentage of time CGM Glucose in Hypoglycemia (<70 mg/dl), Difference in LS Mean Change (vs Placebo) (300 μg (Days 26 to 32)): 4.91%
- Percentage of time CGM Glucose in Hypoglycemia (<70 mg/dl), LS Mean Change (300 μg (Days 26 to 32)): 3.09%
- Average CGM Glucose Over 7-Day Periods, Change from Baseline to End of Dosing Period, Mean (300 μg (Days 26 to 32)): -41.401 mg/dL
- Average CGM Glucose Over 7-Day Periods, Change from Baseline to End of Dosing Period, Median (300 μg (Days 26 to 32)): -51.123 mg/dL
- Percentage of time CGM Glucose in Hyperglycemia (>180 mg/dL), Change from Baseline to End of Dosing Period, Mean (300 μg (Days 26 to 32)): −25.49%
- Percentage of time CGM Glucose in Hyperglycemia (>180 mg/dL), Change from Baseline to End of Dosing Period, Median (300 μg (Days 26 to 32)): −23.12%
- Time in target range, LS Mean Change (Insulin Dose < 20 U/day): 17.13%
- Time in target range, LS Mean Change (Insulin Dose ≥ 20 U/day): 10.40%
- Time in target range, LS Mean Change (Total): 14.79%
